We go through 22 molecules from ChEMBL document CHEMBL1131987, “Structure-activity studies on a novel series of cholinergic channel activators based on a heteroaryl ether framework” (Bioorg Med Chem Lett, 1999).

As a reminder, the Ki is a dissociation constant, usually derived from enzyme kinetics or from competition with a known ligand.

The assay addresses Neuronal acetylcholine receptor; alpha4/beta2 (Rattus norvegicus, UniProt P09483+P12390). The assay can be described thus: Nicotinic acetylcholine receptor binding activity was determined by ability to displace [3H]- (-) cytisine binding from whole rat brain synaptic membranes.

Chain of Neuronal acetylcholine receptor; alpha4/beta2 (P09483 whole entry): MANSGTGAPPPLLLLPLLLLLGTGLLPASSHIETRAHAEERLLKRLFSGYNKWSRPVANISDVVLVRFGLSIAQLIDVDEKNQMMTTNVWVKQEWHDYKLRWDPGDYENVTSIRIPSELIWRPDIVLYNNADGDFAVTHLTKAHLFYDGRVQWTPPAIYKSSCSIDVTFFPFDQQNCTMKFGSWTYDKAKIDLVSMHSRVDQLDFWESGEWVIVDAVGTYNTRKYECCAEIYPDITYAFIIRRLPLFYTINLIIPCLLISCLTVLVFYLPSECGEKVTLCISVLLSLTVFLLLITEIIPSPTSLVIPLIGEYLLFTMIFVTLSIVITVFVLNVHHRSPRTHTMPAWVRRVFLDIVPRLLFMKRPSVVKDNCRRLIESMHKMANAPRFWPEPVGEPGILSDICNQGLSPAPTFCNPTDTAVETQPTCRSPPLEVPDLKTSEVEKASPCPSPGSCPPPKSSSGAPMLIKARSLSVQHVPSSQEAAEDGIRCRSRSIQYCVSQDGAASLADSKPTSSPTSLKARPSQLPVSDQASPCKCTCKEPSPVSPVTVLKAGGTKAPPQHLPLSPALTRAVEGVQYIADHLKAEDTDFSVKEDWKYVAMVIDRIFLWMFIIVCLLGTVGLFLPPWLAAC
Chain of Neuronal acetylcholine receptor; alpha4/beta2 (P12390 whole entry): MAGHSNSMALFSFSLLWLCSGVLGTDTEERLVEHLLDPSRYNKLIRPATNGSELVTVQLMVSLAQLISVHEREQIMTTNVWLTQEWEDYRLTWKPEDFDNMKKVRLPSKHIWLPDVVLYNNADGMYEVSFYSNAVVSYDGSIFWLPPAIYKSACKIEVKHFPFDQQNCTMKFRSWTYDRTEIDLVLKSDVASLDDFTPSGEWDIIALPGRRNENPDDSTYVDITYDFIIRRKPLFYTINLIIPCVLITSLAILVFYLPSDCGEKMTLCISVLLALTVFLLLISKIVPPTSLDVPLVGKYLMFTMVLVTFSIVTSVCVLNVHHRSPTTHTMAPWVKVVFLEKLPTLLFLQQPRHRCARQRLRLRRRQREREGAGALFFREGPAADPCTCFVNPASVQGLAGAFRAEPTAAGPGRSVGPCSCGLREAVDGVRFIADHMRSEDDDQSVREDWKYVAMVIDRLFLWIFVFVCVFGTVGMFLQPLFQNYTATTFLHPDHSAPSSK

Regarding `CN1CC[C@H]1COc1ccc(Cl)nn1`, the affinity, expressed as Ki, was 63.8 nM.
`c1ncc(OC[C@@H]2CCN2)cn1` registered a Ki of 0.13 nM.
On to `CN1CCC[C@H]1COc1cnccn1`, for which the affinity corresponds to a Ki of 16.3 nM.
`c1cnc(OCCN2CCCC2)cn1` registered an inhibition constant Ki of 560 nM.
With `c1cncc(OCCN2CCCC2)c1` the figure was 240 nM; with `CN1CCC[C@H]1COc1ccc(Cl)nn1`, 29 nM.
Regarding `CN1CC[C@@H](Oc2cccnc2)C1`, the Ki came to 4.44 nM.
`CN1CCC[C@@H]1COc1cnccn1` came in with a Ki of 406 nM.
`CN1CC[C@H]1COc1cccnn1` had a Ki of 28.2 nM.
In turn, `CN1CC[C@H](Oc2cccnc2)C1` came in with a Ki of 2.67 nM.
Under `CN1CCC(Oc2cnccn2)C1` (configuration not stated) stands 359 nM; under `Clc1ccc(OCCN2CCCC2)nn1`, 1300 nM; under `c1ccc(OCCN2CCCC2)nc1`, 160 nM.
In the case of `CN1CCC(OCc2cccnc2)C1` (configuration not stated), the Ki turned out to be 11900 nM.
With `CN1CCC(Oc2ccccn2)C1` (configuration not stated) the figure was above 10000 nM.
With `Clc1ccc(OC[C@@H]2CCN2)nn1` the figure was 15.4 nM.
With `CN1CCC[C@H]1COc1ccccn1` the figure was 495 nM; with `CN1CCC[C@H]1COc1ncccn1`, 1220 nM; with `CN1CCC[C@@H]1COc1ccc(Cl)nn1`, 85.3 nM.
In turn, `CN1CCC(Oc2ccc(Cl)nn2)C1` (configuration not stated) had a Ki of 46.4 nM.
With `CN1CC[C@H]1COc1cncnc1` the figure was 6.54 nM.
With `CN1CCC[C@H]1COc1cccnn1` the figure was 42.1 nM.
